Measurements: patent publication US6541020B1, “Methods and compositions for administration of therapeutic reagents” (Trimeris, Inc., priority 1999, dated 2003)

How the values were obtained:
[1] = Pharmacokinetic study of T1249 in hydrogel composition or aqueous solution, subcutaneous injection, blood plasma levels; type: in vivo, Sprague-Dawley rats; conditions: s.c.; for PTF / AUC(0-inf) / Cmax / Tmax / AUC(0-t) / half-life: approximately 1.25 mg/kg, rat plasma; for AUC(0-inf) / Cmax / Tmax / AUC(0-t) / half-life: Sprague-Dawley, rat, plasma, sc, 1.25 mg/kg; for AUC(0-t): read-out: AUC(0-12); for half-life: read-out: t1/2,terminal (converted)
Description: (§1) Pharmacokinetic parameters were calculated from the data as follows: The terminal elimination phase half (t½, terminal) was calculated using the equation 0.693/k, where k equals the terminal elimination rate constant and is determined from a log/linear regression of at least three data points from the plasma concentration-time curve. Cmax was defined as the highest observed concentration between 0 and 12 hours postdose, and tmax is the collection time corresponding to Cmax. The area under the plasma concentration-time curve from 0 to 12 hours postdose (AUC(0-12) was calculated using the trapezoidal rule. AUC(0-∞) was calculated using the trapezoidal rule and extrapolated to infinity by dividing the last plasma concentration by the terminal elimination rate constant (k). PTF values (peak-trough fluctuations) were calculated using the equation (Cmax-Cmin)/Cav. Cmin was defined as the concentration of T20 at 12 hours postdose, and Cav was calculated using the equation AUC(0-12)/12.
Carrier hydrogel compositions containing T1249 were prepared in both a hydrogel and aqueous compositions. A hydrogel composition was prepared by adding 12.5 mg of lyophilized T1249 to 1 mL of the F5 hydrogel formulation described above in Section 6. A pharmaceutical composition of T1249 in aqueous solution was also prepared by combining lyophilized T1249 (12.5 mg) to 2 mL of water for injection (USP). The contained 12.5 mg of T1249, 25 mg mannitol and sodium hydroxide/hydrochloric acid to adjust the pH to 6.5.
The T1249 carrier hydrogel composition were administered to Sprague-Dawley rats according to the protocol described in Section 7.1, above, for T20. The rats were divided randomly into two groups (Groups I and II). The rats in Group I were each administered the above-described hydrogel compositions containing T1249. The rats in Group II were each administered the above-described composition of T1249 in aqueous buffer as a control. Blood plasma levels of T1249 were measured from samples collected from the animals immediately after (0 hours) and 1, 2, 4, 8, 12, 24, 36 and 48 hours post-dosing.
Pharmacokinetic parameters were calculated from the data as described in Section 7.1, above.

[2] = Pharmacokinetic study of T20 in hydrogel compositions or aqueous solution, single subcutaneous bolus injection, blood plasma levels; type: in vivo, Sprague-Dawley rats; conditions: for Tmax / half-life / AUC(0-inf) / Cmax / AUC(0-t): male, Sprague-Dawley, sc; for AUC(0-t): read-out: AUC(0-12)
Description: Pharmacokinetic studies were performed on 16 cannulated male Sprague-Dawley rats having an average weight of 0.230 kg (StdDev=0.008 kg). Specifically, the rats were divided randomly into four groups (Groups I-IV). The rats in Group I were each administered T20 at a concentration of 50 mg/mL in a higher viscosity gel system (i.e., of the F2-50 pharmaceutical composition described in Section 6.1, supra. The rats in Group II were each administered T20 at a concentration of 25 mg/mL in a higher viscosity gel system (i.e., of the F2-25 pharmaceutical composition described in Section 6.1, supra). The rats in Group III were each administered T20 at a concentration of 25 mg/mL in a lower viscosity gel system (i.e., of the F5-25 pharmaceutical composition described in Section 6.1, supra). The rats in Group IV were administered T20 at a concentration of 25 mg/mL in an aqueous buffer (i.e., the WI-25 pharmaceutical composition described supra) as a control. The rats in all of the groups received the T20 via a single subcutaneous bolus injection of 25 μL of the formulation on the right side of the abdomen through a 30G½ Gauge needle. Each group received a dose level of approximately 5 mg/kg (Group I) or 2.5 mg/kg (Groups II-IV). More specifically, the dosages received by the animals in Groups I-IV were 6.71 mg/kg, 2.90 mg/kg, 3.27 mg/kg and 2.78 mg/kg, respectfully. These dosages were selected to approximate the dose levels, on a mg/cm^2 basis, to be used in humans.
Blood plasma levels of T20 were measured from samples collected from the animals immediately after (0 hours) and 1, 2, 4, 8, 12, and 24 hours post-dosing.
as §1

[3] = Group I: 12.5 mg/mL T1249 in low viscosity hydrogel (F5)
[4] = Group II: 12.5 mg/mL T1249 in aqueous buffer (control)
[5] = T20 as a subcutaneous injection of a hydrogel
[6] = 2.9 mg/kg, Group II: F2-25, 25 mg/mL T20 in high viscosity hydrogel, single s.c. bolus 25 μL, 2.90 mg/kg, rat plasma
[7] = Group I: F2-50, 50 mg/mL T20 in high viscosity hydrogel, single s.c. bolus 25 μL, 6.71 mg/kg, rat plasma
[8] = Group III: F5-25, 25 mg/mL T20 in lower viscosity hydrogel, single s.c. bolus 25 μL, 3.27 mg/kg, rat plasma
[9] = Group IV: WI-25, 25 mg/mL T20 in aqueous buffer (control), single s.c. bolus 25 μL, 2.78 mg/kg, rat plasma

Molecule `CC[C@H](C)[C@H](NC(=O)[C@H](CCC(N)=O)NC(=O)[C@H](C)NC(=O)[C@H](CCC(N)=O)NC(=O)[C@H](CCC(=O)O)NC(=O)[C@H](CC(C)C)NC(=O)[C@H](CC(C)C)NC(=O)[C@H](C)NC(=O)[C@@H](NC(=O)[C@@H](NC(=O)[C@H](CCCCN)NC(=O)[C@H](CCC(N)=O)NC(=O)[C@H](CCC(=O)O)NC(=O)[C@H](Cc1c[nH]c2ccccc12)NC(=O)[C@H](CCC(=O)O)NC(=O)[C@H](CCC(N)=O)NC(=O)[C@H](Cc1c[nH]c2ccccc12)NC(C)=O)[C@@H](C)CC)[C@@H](C)O)C(=O)N[C@@H](CCC(N)=O)C(=O)N[C@@H](CCC(N)=O)C(=O)N[C@@H](CCC(=O)O)C(=O)N[C@@H](CCCCN)C(=O)N[C@@H](CC(N)=O)C(=O)N[C@@H](CCC(=O)O)C(=O)N[C@@H](Cc1ccc(O)cc1)C(=O)N[C@@H](CCC(=O)O)C(=O)N[C@@H](CC(C)C)C(=O)N[C@@H](CCC(N)=O)C(=O)N[C@@H](CCCCN)C(=O)N[C@@H](CC(C)C)C(=O)N[C@@H](CC(=O)O)C(=O)N[C@@H](CCCCN)C(=O)N[C@@H](Cc1c[nH]c2ccccc12)C(=O)N[C@@H](C)C(=O)N[C@@H](CO)C(=O)N[C@@H](CC(C)C)C(=O)N[C@@H](Cc1c[nH]c2ccccc12)C(=O)N[C@@H](CCC(=O)O)C(=O)N[C@@H](Cc1c[nH]c2ccccc12)C(=O)N[C@@H](Cc1ccccc1)C(N)=O` [T1249] has a PTF [1, 3] of 1.62 ± 0.086, a PTF [1, 4] of 4.44 ± 0.680 and an AUC(0-inf) [1, 3] of 29100 ± 5200 ng·h/mL. For the same molecule, the Cmax [1, 3] was 1900 ± 334 ng/mL, the Tmax [1, 3] was 8 h and the AUC(0-t) [1, 3] was 28200 ± 5640 ng·h/mL. The half-life [1, 3] was 3.37 ± 0.68 h, the AUC(0-inf) [1, 4] was 18400 ± 4070 ng·h/mL and the Cmax [1, 4] was 3320 ± 215 ng/mL. It also gave a Tmax [1, 4] of 2 h, an AUC(0-t) [1, 4] of 18300 ± 4060 ng·h/mL and a half-life [1, 4] of 2.28 ± 0.122 h. For the same molecule, the “pharmacokinetic properties, hydrogel versus aqueous solution” value ([1]; T1249 administered in a hydrogel composition) was “improved pharmacokinetic properties”.

With enfuvirtide the “T20 plasma concentration levels within 12 hours” value ([2]; T20 administered by a hydrogel, s.c.) was “remained elevated”, the “T20 plasma concentration levels within 12 hours” value ([2]; T20 administered in an aqueous solution, s.c.) was “already cleared the blood stream” and the “change of bioavailability, hydrogel versus aqueous solution” value [2, 5] was “approximately doubling”. The “change of half-life, hydrogel versus aqueous solution” value [2, 5] was “approximately doubling”, the “dose proportionality of pharmacokinetics (AUC, t½)” value ([2]; high viscosity hydrogel formulation of T20, s.c., both dose levels) was “linearity of pharmacokinetics within the dose range tested” and the Tmax ([2]; rat, plasma, 2.78 mg/kg, Group IV: WI-25, 25 mg/mL T20 in aqueous buffer (control), single s.c. bolus 25 μL, 2.78 mg/kg, rat plasma) was ~2 h. For the same molecule, the Tmax ([2]; rat, plasma, 2.9 mg/kg, Group II: F2-25, 25 mg/mL T20 in high viscosity hydrogel, single s.c. bolus 25 μL, 2.90 mg/kg, rat plasma) was 4 h, the Tmax ([2]; rat, plasma, 3.27 mg/kg, Group III: F5-25, 25 mg/mL T20 in lower viscosity hydrogel, single s.c. bolus 25 μL, 3.27 mg/kg, rat plasma) was 4 h and the half-life ([2]; rat, plasma, T20 administered in a hydrogel, s.c., depending on the exact hydrogel formulation and T20 dosage, read-out: group mean half-life values) was 4.27 to 4.75 h. The AUC(0-inf) [2, 6] was 24800 ± 4860 ng·h/mL, the Cmax [2, 6] was 2830 ± 316 ng/mL and the AUC(0-t) [2, 6] was 19600 ± 3450 ng·h/mL. For the same molecule, the half-life ([2]; 2.9 mg/kg, Group II: F2-25, 25 mg/mL T20 in high viscosity hydrogel, single s.c. bolus 25 μL, 2.90 mg/kg, rat plasma, read-out: t1/2,terminal (converted)) was 4.27 ± 0.159 h, the AUC(0-inf) [2, 7] was 55400 ± 9150 ng·h/mL and the Cmax [2, 7] was 5970 ± 499 ng/mL. The AUC(0-t) [2, 7] was 43400 ± 4480 ng·h/mL, the half-life ([2]; Group I: F2-50, 50 mg/mL T20 in high viscosity hydrogel, single s.c. bolus 25 μL, 6.71 mg/kg, rat plasma, read-out: t1/2,terminal (converted)) was 4.75 ± 0.285 h and the AUC(0-inf) [2, 8] was 32800 ± 9710 ng·h/mL. The Cmax [2, 8] was 3780 ± 751 ng/mL, the AUC(0-t) [2, 8] was 25700 ± 6140 ng·h/mL and the half-life ([2]; Group III: F5-25, 25 mg/mL T20 in lower viscosity hydrogel, single s.c. bolus 25 μL, 3.27 mg/kg, rat plasma, read-out: t1/2,terminal (converted)) was 4.61 ± 0.618 h. For the same molecule, the AUC(0-inf) [2, 9] was 6080 ± 1610 ng·h/mL, the Cmax [2, 9] was 1550 ± 640 ng/mL and the AUC(0-t) [2, 9] was 5870 ± 1690 ng·h/mL. For the same molecule, the half-life ([2]; Group IV: WI-25, 25 mg/mL T20 in aqueous buffer (control), single s.c. bolus 25 μL, 2.78 mg/kg, rat plasma, read-out: t1/2,terminal (converted)) was 2.19 h.
